What was measured:
[1] = molecular target: Phospholipase A2 (Sus scrofa) (UniProt A0A8D1VEY7); assay: PLA2 Eurofins-Panlabs selectivity data (BI); conditions: Compound concentration 10.0 uM
[2] = test system: Receptor-type tyrosine-protein kinase FLT3 (Homo sapiens), P36888 [UNDEFINED MUTATION]; conditions: Compound concentration 1000.0 nM
[3] = test system: Receptor-type tyrosine-protein kinase FLT3 (Homo sapiens), P36888 [UNDEFINED MUTATION]; conditions: Compound concentration 1000.0 nM; remark: listed apart in the source
[4] = molecular target: Calcium/calmodulin-dependent protein kinase type 1D (Homo sapiens) (UniProt Q8IU85); conditions: Compound concentration 1000.0 nM
[5] = test system: Receptor-type tyrosine-protein kinase FLT3 (Homo sapiens), P36888 [D835V]; conditions: Compound concentration 1000.0 nM
[6] = molecular target: Tyrosine-protein kinase ABL1 (Homo sapiens) (UniProt P00519); conditions: Compound concentration 1000.0 nM
[7] = molecular target: Serine/threonine-protein kinase 10 (Homo sapiens) (UniProt O94804); conditions: Compound concentration 1000.0 nM
[8] = molecular target: Serine/threonine-protein kinase 35 (Homo sapiens) (UniProt Q8TDR2); conditions: Compound concentration 1000.0 nM
Chain of Serine/threonine-protein kinase 35 (Homo sapiens) (Q8TDR2 whole entry): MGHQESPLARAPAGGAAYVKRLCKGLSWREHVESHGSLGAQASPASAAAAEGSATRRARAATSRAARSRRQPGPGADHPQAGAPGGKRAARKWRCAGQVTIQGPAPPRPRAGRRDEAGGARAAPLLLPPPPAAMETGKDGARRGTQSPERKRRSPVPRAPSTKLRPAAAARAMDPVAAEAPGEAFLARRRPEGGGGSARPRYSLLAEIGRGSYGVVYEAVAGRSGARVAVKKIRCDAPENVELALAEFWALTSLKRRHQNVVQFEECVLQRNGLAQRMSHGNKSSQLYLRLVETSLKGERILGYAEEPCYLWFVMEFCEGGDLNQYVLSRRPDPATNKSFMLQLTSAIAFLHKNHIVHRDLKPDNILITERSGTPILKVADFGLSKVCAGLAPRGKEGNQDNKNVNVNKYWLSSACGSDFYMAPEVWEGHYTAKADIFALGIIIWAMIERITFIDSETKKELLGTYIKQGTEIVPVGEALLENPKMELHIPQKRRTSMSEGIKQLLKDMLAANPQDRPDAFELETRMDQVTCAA

[9] = molecular target: NT-3 growth factor receptor (Homo sapiens) (UniProt Q16288); conditions: Compound concentration 1000.0 nM
Chain of NT-3 growth factor receptor (Homo sapiens) (Q16288 32-839 limits assumed): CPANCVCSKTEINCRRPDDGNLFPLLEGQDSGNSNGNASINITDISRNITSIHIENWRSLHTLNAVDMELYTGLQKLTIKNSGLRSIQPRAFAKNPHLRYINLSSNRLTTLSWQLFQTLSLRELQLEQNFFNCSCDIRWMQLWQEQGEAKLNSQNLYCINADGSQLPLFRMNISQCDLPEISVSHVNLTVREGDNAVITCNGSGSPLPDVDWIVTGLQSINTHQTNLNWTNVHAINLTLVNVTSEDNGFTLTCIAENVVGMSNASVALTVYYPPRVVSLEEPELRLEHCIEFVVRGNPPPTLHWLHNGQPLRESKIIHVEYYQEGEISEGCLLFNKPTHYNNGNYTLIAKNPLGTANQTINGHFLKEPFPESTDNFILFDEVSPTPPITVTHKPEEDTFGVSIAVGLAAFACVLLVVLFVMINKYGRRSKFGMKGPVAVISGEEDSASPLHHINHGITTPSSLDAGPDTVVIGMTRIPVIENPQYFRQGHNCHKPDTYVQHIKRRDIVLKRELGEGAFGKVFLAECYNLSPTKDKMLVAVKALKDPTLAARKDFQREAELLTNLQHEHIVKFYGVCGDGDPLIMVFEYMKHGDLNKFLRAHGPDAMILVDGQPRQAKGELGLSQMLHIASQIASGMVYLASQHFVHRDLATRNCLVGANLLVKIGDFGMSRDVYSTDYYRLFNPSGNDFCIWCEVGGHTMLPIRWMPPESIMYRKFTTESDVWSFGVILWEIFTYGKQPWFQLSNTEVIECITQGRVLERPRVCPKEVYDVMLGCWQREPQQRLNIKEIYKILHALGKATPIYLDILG

[10] = molecular target: Mitogen-activated protein kinase kinase kinase 11 (Homo sapiens) (UniProt Q16584); conditions: Compound concentration 1000.0 nM
[11] = molecular target: cGMP-dependent protein kinase 2 (Homo sapiens) (UniProt Q13237); conditions: Compound concentration 1000.0 nM
[12] = molecular target: Mitogen-activated protein kinase kinase kinase 7 (Homo sapiens) (UniProt O43318); conditions: Compound concentration 1000.0 nM
Chain of Mitogen-activated protein kinase kinase kinase 7 (Homo sapiens) (O43318 whole entry, canonical isoform): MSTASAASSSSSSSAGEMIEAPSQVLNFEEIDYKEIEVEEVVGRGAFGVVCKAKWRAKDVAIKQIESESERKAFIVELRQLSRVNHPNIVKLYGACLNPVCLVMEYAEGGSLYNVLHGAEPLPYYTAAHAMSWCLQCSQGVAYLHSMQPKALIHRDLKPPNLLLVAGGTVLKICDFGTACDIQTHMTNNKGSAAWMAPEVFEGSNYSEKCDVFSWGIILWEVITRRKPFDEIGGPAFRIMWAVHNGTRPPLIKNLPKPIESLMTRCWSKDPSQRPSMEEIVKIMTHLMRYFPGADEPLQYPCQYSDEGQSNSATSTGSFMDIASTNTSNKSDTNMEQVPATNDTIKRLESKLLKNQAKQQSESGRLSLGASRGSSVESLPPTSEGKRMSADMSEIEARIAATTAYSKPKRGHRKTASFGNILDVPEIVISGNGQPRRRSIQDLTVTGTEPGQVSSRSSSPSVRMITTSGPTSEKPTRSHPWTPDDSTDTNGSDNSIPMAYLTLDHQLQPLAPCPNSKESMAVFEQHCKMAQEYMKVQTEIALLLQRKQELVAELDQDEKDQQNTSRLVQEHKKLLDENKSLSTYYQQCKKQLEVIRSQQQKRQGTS

[13] = molecular target: ATP-sensitive inward rectifier potassium channel 1 isoform X1 (Mesocricetus auratus) (UniProt A0A1U8CU73); assay: K+/KATP/HA Eurofins-Panlabs selectivity data (BI); conditions: Compound concentration 10.0 uM
[14] = molecular target: Protein-tyrosine kinase 6 (Homo sapiens) (UniProt Q13882); conditions: Compound concentration 1000.0 nM
[15] = molecular target: T1, 5-hydroxytryptamine receptor 3A (Homo sapiens) (UniProt P46098); conditions: Compound concentration 10.0 uM
T1 sequence (whole entry): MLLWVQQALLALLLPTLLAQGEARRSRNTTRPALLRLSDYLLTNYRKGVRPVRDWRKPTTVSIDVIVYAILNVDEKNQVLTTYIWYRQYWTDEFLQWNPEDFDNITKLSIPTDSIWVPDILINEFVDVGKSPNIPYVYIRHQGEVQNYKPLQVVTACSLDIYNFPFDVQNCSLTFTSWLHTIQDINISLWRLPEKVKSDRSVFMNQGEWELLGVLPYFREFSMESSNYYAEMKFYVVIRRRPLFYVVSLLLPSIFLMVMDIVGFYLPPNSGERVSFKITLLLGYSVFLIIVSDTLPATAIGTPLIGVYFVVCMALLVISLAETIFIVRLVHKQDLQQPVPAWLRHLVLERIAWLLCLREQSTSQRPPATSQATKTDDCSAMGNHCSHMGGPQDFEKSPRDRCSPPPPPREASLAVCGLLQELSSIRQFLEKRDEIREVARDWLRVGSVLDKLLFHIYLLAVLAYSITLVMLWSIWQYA

[16] = molecular target: Ephrin type-A receptor 1 (Homo sapiens) (UniProt P21709); conditions: Compound concentration 1000.0 nM
[17] = molecular target: Interleukin-1 receptor-associated kinase 1 (Homo sapiens) (UniProt P51617); conditions: Compound concentration 1000.0 nM
[18] = molecular target: Ephrin type-B receptor 4 (Homo sapiens) (UniProt P54760); conditions: Compound concentration 1000.0 nM
[19] = molecular target: SNF-related serine/threonine-protein kinase (Homo sapiens) (UniProt Q9NRH2); conditions: Compound concentration 1000.0 nM
[20] = molecular target: Phosphatidylinositol 4,5-bisphosphate 3-kinase catalytic subunit delta isoform (Homo sapiens) (UniProt O00329); conditions: Compound concentration 1000.0 nM
[21] = molecular target: Proto-oncogene tyrosine-protein kinase Src (Homo sapiens) (UniProt P12931); conditions: Compound concentration 1000.0 nM
Chain of Proto-oncogene tyrosine-protein kinase Src (Homo sapiens) (P12931 2-536 limits assumed): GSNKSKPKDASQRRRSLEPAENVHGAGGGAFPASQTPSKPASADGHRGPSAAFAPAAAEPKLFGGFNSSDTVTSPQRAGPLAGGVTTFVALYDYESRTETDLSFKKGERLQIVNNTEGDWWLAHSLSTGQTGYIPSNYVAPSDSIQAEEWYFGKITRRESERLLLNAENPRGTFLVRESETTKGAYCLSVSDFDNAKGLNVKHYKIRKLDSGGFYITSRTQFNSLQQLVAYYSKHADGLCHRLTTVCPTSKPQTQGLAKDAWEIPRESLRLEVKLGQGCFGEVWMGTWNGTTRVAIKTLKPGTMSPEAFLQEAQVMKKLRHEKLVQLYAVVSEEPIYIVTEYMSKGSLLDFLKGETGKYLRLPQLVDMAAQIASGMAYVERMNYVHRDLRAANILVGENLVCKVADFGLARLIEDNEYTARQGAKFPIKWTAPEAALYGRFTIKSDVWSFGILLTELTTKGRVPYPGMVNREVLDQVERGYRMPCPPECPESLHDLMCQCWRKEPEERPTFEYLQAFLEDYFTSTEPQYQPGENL

[22] = molecular target: Dual specificity mitogen-activated protein kinase kinase 5 (Homo sapiens) (UniProt Q13163); conditions: Compound concentration 1000.0 nM
[23] = molecular target: 3-phosphoinositide-dependent protein kinase 1 (Homo sapiens) (UniProt O15530); conditions: Compound concentration 1000.0 nM
[24] = molecular target: Non-receptor tyrosine-protein kinase TYK2 (Homo sapiens) (UniProt P29597); conditions: Compound concentration 1000.0 nM
[25] = molecular target: Cyclin-dependent kinase 5 (Homo sapiens) (UniProt Q00535); conditions: Compound concentration 1000.0 nM
[26] = molecular target: Cyclin-dependent kinase 3 (Homo sapiens) (UniProt Q00526); conditions: Compound concentration 1000.0 nM
[27] = molecular target: GABA-A receptor; anion channel (Rattus norvegicus) (UniProt O09028+P15431+P18506+P18508+P19969+P20236+P23574+P23576+P28471+P28473+P30191+P62813+P63079+P63138+Q91ZM7+Q9ES14); conditions: Compound concentration 10.0 uM
[28] = test system: Phosphatidylinositol 4,5-bisphosphate 3-kinase catalytic subunit alpha isoform (Homo sapiens), P42336 [E542K]; conditions: Compound concentration 1000.0 nM
[29] = molecular target: Nitric oxide synthase 3 (Rattus norvegicus) (UniProt Q62600); assay: CNOS Eurofins-Panlabs selectivity data (BI); conditions: Compound concentration 10.0 uM
Chain of Nitric oxide synthase 3 (Rattus norvegicus) (Q62600 whole entry): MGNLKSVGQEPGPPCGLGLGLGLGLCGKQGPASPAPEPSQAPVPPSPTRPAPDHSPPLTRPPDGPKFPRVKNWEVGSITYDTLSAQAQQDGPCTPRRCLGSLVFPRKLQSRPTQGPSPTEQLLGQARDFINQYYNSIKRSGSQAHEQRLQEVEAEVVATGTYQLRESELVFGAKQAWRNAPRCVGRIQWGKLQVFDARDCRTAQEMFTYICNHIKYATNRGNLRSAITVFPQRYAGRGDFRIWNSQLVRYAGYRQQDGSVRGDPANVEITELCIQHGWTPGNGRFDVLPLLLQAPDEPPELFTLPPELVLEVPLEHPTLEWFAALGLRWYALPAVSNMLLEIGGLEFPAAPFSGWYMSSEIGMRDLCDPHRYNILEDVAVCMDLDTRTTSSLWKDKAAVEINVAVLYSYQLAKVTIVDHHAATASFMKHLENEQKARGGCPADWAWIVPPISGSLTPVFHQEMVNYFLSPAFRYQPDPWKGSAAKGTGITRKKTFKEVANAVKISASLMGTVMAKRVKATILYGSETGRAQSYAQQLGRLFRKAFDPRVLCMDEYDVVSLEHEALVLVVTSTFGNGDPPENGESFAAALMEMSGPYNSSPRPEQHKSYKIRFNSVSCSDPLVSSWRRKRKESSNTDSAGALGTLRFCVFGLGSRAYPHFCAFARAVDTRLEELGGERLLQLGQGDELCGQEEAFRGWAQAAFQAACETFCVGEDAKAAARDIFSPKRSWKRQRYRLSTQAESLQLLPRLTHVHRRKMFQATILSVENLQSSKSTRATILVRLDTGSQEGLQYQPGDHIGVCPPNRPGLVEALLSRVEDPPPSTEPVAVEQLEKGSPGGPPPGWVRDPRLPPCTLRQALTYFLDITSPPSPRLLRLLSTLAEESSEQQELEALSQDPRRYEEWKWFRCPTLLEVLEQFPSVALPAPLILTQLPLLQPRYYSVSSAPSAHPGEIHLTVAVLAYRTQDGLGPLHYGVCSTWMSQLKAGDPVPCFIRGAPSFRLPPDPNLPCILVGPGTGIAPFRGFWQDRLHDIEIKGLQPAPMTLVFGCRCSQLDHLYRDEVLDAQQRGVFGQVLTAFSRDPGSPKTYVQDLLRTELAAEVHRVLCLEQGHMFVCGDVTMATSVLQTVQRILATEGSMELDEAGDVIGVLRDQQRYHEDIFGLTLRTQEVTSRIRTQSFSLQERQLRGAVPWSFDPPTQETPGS

[30] = molecular target: Vascular endothelial growth factor receptor 3 (Homo sapiens) (UniProt P35916); conditions: Compound concentration 1000.0 nM
[31] = molecular target: Mitogen-activated protein kinase kinase kinase 19 (Homo sapiens) (UniProt Q56UN5); conditions: Compound concentration 1000.0 nM
[32] = molecular target: Tyrosine-protein kinase HCK (Homo sapiens) (UniProt P08631); conditions: Compound concentration 1000.0 nM
[33] = molecular target: Sodium-dependent noradrenaline transporter (Homo sapiens) (UniProt P23975); conditions: Compound concentration 10.0 uM
[34] = test system: Tyrosine-protein kinase ABL1 (Homo sapiens), P00519 [Y253F]; conditions: Compound concentration 1000.0 nM
[35] = molecular target: Ephrin type-B receptor 1 (Homo sapiens) (UniProt P54762); conditions: Compound concentration 1000.0 nM
Chain of Ephrin type-B receptor 1 (Homo sapiens) (P54762 whole entry): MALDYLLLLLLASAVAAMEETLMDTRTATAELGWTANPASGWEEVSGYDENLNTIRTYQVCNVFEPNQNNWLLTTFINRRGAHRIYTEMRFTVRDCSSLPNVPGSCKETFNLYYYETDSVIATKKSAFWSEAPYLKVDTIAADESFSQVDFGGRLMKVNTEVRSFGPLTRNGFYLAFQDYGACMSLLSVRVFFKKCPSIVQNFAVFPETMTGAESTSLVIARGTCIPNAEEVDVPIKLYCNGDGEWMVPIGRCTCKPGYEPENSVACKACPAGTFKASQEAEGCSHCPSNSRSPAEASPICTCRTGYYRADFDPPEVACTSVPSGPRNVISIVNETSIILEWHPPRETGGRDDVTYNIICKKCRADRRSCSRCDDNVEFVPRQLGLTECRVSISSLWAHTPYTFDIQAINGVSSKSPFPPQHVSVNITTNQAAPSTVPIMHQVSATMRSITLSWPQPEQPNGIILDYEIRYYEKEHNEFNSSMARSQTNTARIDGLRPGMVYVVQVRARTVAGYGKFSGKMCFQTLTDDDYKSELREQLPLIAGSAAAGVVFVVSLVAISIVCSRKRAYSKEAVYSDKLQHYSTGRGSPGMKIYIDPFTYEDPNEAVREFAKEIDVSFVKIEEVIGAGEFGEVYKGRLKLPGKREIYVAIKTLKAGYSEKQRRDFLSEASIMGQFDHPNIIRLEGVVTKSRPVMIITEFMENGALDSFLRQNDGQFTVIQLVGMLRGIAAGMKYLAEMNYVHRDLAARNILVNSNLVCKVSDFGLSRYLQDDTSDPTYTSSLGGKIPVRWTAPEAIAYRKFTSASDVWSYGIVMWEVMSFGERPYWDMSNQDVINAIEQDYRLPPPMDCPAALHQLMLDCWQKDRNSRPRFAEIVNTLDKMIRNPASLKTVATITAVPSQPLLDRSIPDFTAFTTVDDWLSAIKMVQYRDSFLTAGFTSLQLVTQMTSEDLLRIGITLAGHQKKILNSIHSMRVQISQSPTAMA

[36] = molecular target: Receptor-type tyrosine-protein kinase FLT3 (Homo sapiens) (UniProt P36888); conditions: Compound concentration 1000.0 nM
[37] = test system: Serine/threonine-protein kinase B-raf (Homo sapiens), P15056 [V600E]; conditions: Compound concentration 1000.0 nM

Chain of Phospholipase A2 (Sus scrofa) (A0A8D1VEY7 as listed by the source): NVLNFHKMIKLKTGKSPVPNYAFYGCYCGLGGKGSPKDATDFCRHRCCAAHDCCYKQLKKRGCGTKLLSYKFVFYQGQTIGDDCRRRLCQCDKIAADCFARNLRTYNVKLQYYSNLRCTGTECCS

CCOCCn1cc(C(=O)Nc2ccc(-n3nc(-c4cccnc4)cc3C(F)(F)F)cn2)ccc1=O [BI 1935]
inactive: residual activity [1] 96% | residual activity [2] 79% | residual activity [3] 56% | residual activity [4] 100% | residual activity [5] 100% | residual activity [6] 61% | residual activity [7] 100% | residual activity [8] 94% | residual activity [9] 100% | residual activity [10] 100% | residual activity [11] 100% | residual activity [12] 90% | residual activity [13] 92% | residual activity [14] 100% | inhibition [15] 2.27% | residual activity [16] 82% | residual activity [17] 84% | residual activity [18] 100% | residual activity [19] 88% | residual activity [20] 100% | residual activity [21] 90% | residual activity [22] 84% | residual activity [23] 87% | residual activity [24] 100% | residual activity [25] 100% | residual activity [26] 100% | inhibition [27] 18.1% | residual activity [28] 100% | residual activity [29] 112% | residual activity [30] 92% | residual activity [31] 75% | residual activity [32] 93% | inhibition [33] -7.51% | residual activity [34] 73% | residual activity [35] 100% | residual activity [36] 63% | residual activity [37] 97%
